How the values were obtained:
[1] = Critical aggregation concentration (CAC) of AmB; type: physicochemical
[2] = AmB release from PEG-DSPE micelles using equilibrium dialysis; type: physicochemical; conditions: 25° C., 30 μg/mL AmB
Experimental: AmB release from PEG-DSPE micelles using equilibrium dialysis. AmB stock solutions (micelle encapsulated or dissolved in DMSO) were diluted to 30 μg/mL in HEPES buffer or in 4% BSA. These solutions were put in dialysis cassettes (MWCO 7000 g/mol, Pierce) and were placed in excess buffer (5 mM HEPES, pH 7.0). The MWCO of the dialysis membrane was chosen to allow for diffusion of AmB (molecular weight 924.1) while retaining large molecules such as bovine serum albumin (molecular weight 66 kDa) and intact micelles (molecular weight >100 kDa). Near-sink conditions for AmB were maintained by performing the release experiment in a 100-fold excess dialysis buffer. Because AmB is susceptible to degradation, the dialysis buffer was degassed overnight and 20 μg/mL propyl gallate was added as an antioxidant (15, 16). At predetermined time intervals, 100 μL samples were taken and AmB concentration in dialysis cassettes was determined using reversed-phase HPLC. […]
AmB release was fit to a first-order process of the form At/A0=a.e^−k.t by non-linear regression (SigmaPlot v.9.0). […] The half-life t1/2 for AmB release was calculated using t1/2=0.693/k.
For determination of AmB content, 15 μL samples were injected into 4.6 mm×150 mm Eclipse XDB-C8 reversed-phase column (Agilent Technologies) and AmB absorbance detected at 412 nm using the diode array detector. […]

4% BSA = 4% BSA (Bos taurus, UniProt P02769); assay: Electronic absorption kinetics at 412 nm upon dilution in serum albumin; type: physicochemical, bovine; conditions: AmB 10 μg/mL
4% BSA, sequence (P02769 25-607): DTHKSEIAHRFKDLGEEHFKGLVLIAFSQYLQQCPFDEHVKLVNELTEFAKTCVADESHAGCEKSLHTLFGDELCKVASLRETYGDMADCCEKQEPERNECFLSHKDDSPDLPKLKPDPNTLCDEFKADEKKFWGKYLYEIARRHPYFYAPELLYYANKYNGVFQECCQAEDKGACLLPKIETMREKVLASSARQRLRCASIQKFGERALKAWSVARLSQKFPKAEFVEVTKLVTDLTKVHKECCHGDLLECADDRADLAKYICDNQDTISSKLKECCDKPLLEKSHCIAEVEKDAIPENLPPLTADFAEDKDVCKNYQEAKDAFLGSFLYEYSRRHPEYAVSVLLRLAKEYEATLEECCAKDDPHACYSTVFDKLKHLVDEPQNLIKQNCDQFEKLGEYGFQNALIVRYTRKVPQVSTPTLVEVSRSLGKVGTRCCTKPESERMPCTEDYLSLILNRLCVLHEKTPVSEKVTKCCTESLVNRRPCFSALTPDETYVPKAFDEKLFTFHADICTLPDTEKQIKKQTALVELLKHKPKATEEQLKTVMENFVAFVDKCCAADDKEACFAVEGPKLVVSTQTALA
Experimental: Electronic absorption kinetics. Stock solutions containing AmB (micelle encapsulated or dissolved in DMSO) were added to 4% BSA, buffered to pH 7.0 with 10 mM HEPES. The final concentration of AmB was 10 μg/mL. For AmB dissolved in DMSO, the final DMSO content was less than 0.2%. Absorbance spectra were recorded from 300 to 450 nm at room temperature by using the Cary 50 spectrophotometer (Varian, Palo Alto, Calif.). Sequential spectra were acquired at 15 second intervals for the first 5 min; and at 1 minute intervals for an additional 40 minutes. A scan for baseline absorbance was taken before addition of AmB and was subtracted from each spectrum. The change in absorbance at 412 nm, […] was fit to a first-order process of the form A∞−At=a.e^−k.t using non-linear regression (SigmaPlot v.9.0).

[3] = test system: C. albicans 98-17 and C. albicans 98-234; assay: In vitro susceptibility, broth microdilution, both isolates; type: cell-based; conditions: Candida albicans
Experimental: (§1) C. albicans 98-17 and C. albicans 98-234 were maintained on SDA plates. Susceptibility of yeast isolates was performed using broth microdilution in RPMI-1640 (supplemented with 0.165 M morpholinepropanesulfonic acid, buffered to pH 7.0) according to procedures recommended in NCCLS M27-A2 (25). Test drug solutions were incubated with yeast inoculum at 35° C. in 96-well plates for a 24 h period. All measurements were done in triplicate. Percent yeast growth relative to drug-free control was determined by measuring optical density (OD) at 650 nm, using the Microplate EL 312e plate reader. […] The MIC values were expressed as a mean of three determinations.
(§2) Calculation of a combination index was done in two steps. First, inhibition of fungal growth in response to varying concentrations of single-drug was fit to median-effect function:
(§3) where fa is the mean growth inhibition, relative to drug-free control, Dm is the drug concentration for a 50% growth inhibition, and m is the slope-factor describing the dose-response curve. Parameter Dm and m for each drug were estimated by non-linear regression using SigmaPlot (v. 9.0).

C. albicans 98-234 = assay: In vitro susceptibility, broth microdilution (MIC, median-effect fit); type: cell-based; conditions: Candida albicans, 98234, strain 98-234
Experimental: as §1, §2, §3

C. albicans 98-17 = assay: as above; type: cell-based; conditions: Candida albicans, 9817, strain 98-17
Experimental: as §1, §2, §3

[4] = >95% inhibition, 24 h, 35° C., read-out: Minimum Inhibitory Concentrations (MIC)
[5] = median-effect fit, read-out: Dm × 10^3 (concentration for 50% growth inhibition)

Row | Compound | CAC ([1]; in 4% BSA) [µM] | CAC ([1]; in HEPES) [μMA] | 100 · k (AmB release, first-order fit) ([2]; 5 mM HEPES) [h⁻¹] | 100 · k (AmB release, first-order fit) ([2]; 4% BSA) [h⁻¹] | A∞ (absorbance at 412 nm) (4% BSA) | 100 k (absorbance change at 412 nm) (4% BSA; room temperature) [min⁻¹] | MIC ([3]; both isolates, 24 h) [µg/mL] | IC50 ([3]; range over isolates, read-out: Dm) [µg/mL] | MIC (C. albicans 98-234; [4]) [µg/mL] | IC50 (C. albicans 98-234; [5]) [µg/mL] | MIC (C. albicans 98-17; [4]) [µg/mL] | IC50 (C. albicans 98-17; [5]) [µg/mL]
1 | C[C@@H]1[C@H](O)[C@@H](C)/C=C/C=C/C=C/C=C/C=C/C=C/C=C/[C@H](O[C@@H]2O[C@H](C)[C@@H](O)[C@H](N)[C@@H]2O)C[C@@H]2O[C@](O)(C[C@@H](O)C[C@@H](O)[C@H](O)CC[C@@H](O)C[C@@H](O)CC(=O)O[C@H]1C)C[C@H](O)[C@H]2C(=O)O [Free AmB, Amphotericin B] | 10 | 1 | 1.01 ± 0.10 | 3.72 ± 0.04 | 0.77 | 3.25 ± 0.23 |  |  |  |  |  | 
2 | Nc1nc(=O)[nH]cc1F [5-FC, 5-fluorocytosine] |  |  |  |  |  |  | 0.1 | 0.04 to 0.07 | 0.1 | 39.8 ± 0.1 | 0.1 | 70.7 ± 7.3

Source: patent publication US20100210575A1, “STRUCTURING EFFECT OF CHOLESTEROL IN PEG-PHOSPHOLIPID MICELLES, DRUG DELIVERY OF AMPHOTERICIN B, AND COMBINATION ANTIFUNGALS” (WISCONSIN ALUMNI RESEARCH FOUNDATION, priority 2007, published 2010)
